# Values joined by “and” are separate entries in the source; they are usually repeats but may differ in a detail not shown here. Identical values can stand only once. Where a SMILES comes first, the peptide text is derived from it. The star is where a group is joined. Cbz = O=C(OCc1ccccc1)*
# Assays:
# BL-70 = experiment: SANGER: Inhibition of human BL-70 cell growth in a cell viability assay.; format: functional, cell-based
# LC4-1 = experiment: cells; format: functional, cell-based, Homo sapiens;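 also: growth inhibition of LC4-1 cells, read out with a cell viability assay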
# Description: SANGER: Inhibition of human LC4-1 cell growth in a cell viability assay.
# ARH-77 = experiment: cells; format: functional, cell-based, Homo sapiens;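 also: growth inhibition of ARH-77 cells, read out by a cell viability assay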
# Description: SANGER: Inhibition of human ARH-77 cell growth in a cell viability assay.
# RL = experiment: cells; format: functional, cell-based, Homo sapiens
# Description: SANGER: Inhibition of human RL cell growth in a cell viability assay.
# RL95-2 = experiment: cells; format: functional, cell-based, Homo sapiens;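 also: RL95-2 growth inhibition determined through a cell viability readout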
# Description: SANGER: Inhibition of human RL95-2 cell growth in a cell viability assay.
# NB12 = experiment: cells; format: functional, cell-based; details: Homo sapiens;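 also: growth inhibition of human NB12 cells, read out by a cell viability assay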
# Description: SANGER: Inhibition of human NB12 cell growth in a cell viability assay.
# MFH-ino = experiment: cells; format: functional, cell-based, Homo sapiens;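 also: growth inhibition of human MFH-ino cells, read out by a cell viability assay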
# Description: SANGER: Inhibition of human MFH-ino cell growth in a cell viability assay.
# SCLC-21H = experiment: cells; format: functional, cell-based, Homo sapiens;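 also: growth inhibition of cultured human SCLC-21H cells, read out with a cell viability assay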
# Description: SANGER: Inhibition of human SCLC-21H cell growth in a cell viability assay.
# ECC4 = experiment: cells; format: functional, cell-based, Homo sapiens;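 also: growth inhibition of ECC4 cells, read out with a cell viability assay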
# Description: SANGER: Inhibition of human ECC4 cell growth in a cell viability assay.
# WSU-NHL = experiment: cells; format: functional, cell-based, Homo sapiens;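 also: growth inhibition of human WSU-NHL cells, read out with a cell viability assay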
# Description: SANGER: Inhibition of human WSU-NHL cell growth in a cell viability assay.
# RPMI 8402 = experiment: SANGER: Inhibition of human RPMI-8402 cell growth in a cell viability assay.; format: functional, cell-based
# LB647-SCLC = experiment: cells; format: functional, cell-based, Homo sapiens;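 also: cell growth inhibition, read out by a viability assay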
# Description: SANGER: Inhibition of human LB647-SCLC cell growth in a cell viability assay.
# BL-41 = experiment: cells; format: functional, cell-based; details: Homo sapiens;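 also: growth inhibition of human BL-41 cells, read out with a cell viability assay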
# Description: SANGER: Inhibition of human BL-41 cell growth in a cell viability assay.
# PF-382 = experiment: cells; format: functional, cell-based, Homo sapiens
# Description: SANGER: Inhibition of human PF-382 cell growth in a cell viability assay.
# NCI-H2196 = experiment: cells; format: functional, cell-based, Homo sapiens;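 also: cell viability assay used as the readout of growth inhibition in NCI-H2196 cells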
# Description: SANGER: Inhibition of human NCI-H2196 cell growth in a cell viability assay.
# KARPAS-422 = experiment: cells; format: functional, cell-based, Homo sapiens
# Description: SANGER: Inhibition of human KARPAS-422 cell growth in a cell viability assay.
# P31-FUJ = experiment: cells; format: functional, cell-based, Homo sapiens;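 also: growth inhibition of P31-FUJ cells, read out with a viability assay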
# Description: SANGER: Inhibition of human P31-FUJ cell growth in a cell viability assay.
# NCI-H510A = experiment: cells; format: functional, cell-based, Homo sapiens;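 also: growth inhibition of NCI-H510A cells, read out with a cell viability assay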
# Description: SANGER: Inhibition of human NCI-H510A cell growth in a cell viability assay.
# EW-22 = experiment: cells; format: functional, cell-based; details: Homo sapiens;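 also: growth inhibition of the EW-22 cell line, measured with a cell viability readout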
# Description: SANGER: Inhibition of human EW-22 cell growth in a cell viability assay.
# EB-3 = experiment: cells; format: functional, cell-based, Homo sapiens;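 also: human EB-3 cells, growth inhibition read out via a cell viability assay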
# Description: SANGER: Inhibition of human EB-3 cell growth in a cell viability assay.
# K052 = experiment: cells; format: functional, cell-based, Homo sapiens;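 also: Read-out from a cell viability assay, IC50 reflecting suppression of K052 cell growth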
# Description: SANGER: Inhibition of human K052 cell growth in a cell viability assay.
# KP-N-YN = experiment: cells; format: functional, cell-based; details: Homo sapiens;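 also: growth inhibition of KP-N-YN cells, read out with a cell viability assay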
# Description: SANGER: Inhibition of human KP-N-YN cell growth in a cell viability assay.
# NCI-H460 = experiment: cells; format: functional, cell-based; details: Homo sapiens;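 also: cell viability assay scoring growth inhibition of human NCI-H460 cells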
# Description: SANGER: Inhibition of human NCI-H460 cell growth in a cell viability assay.
# NCI-H810 = experiment: cells; format: functional, cell-based; details: Homo sapiens;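 also: IC50 reflects inhibition of cancer cell line growth, read out with a cell viability assay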
# Description: SANGER: Inhibition of human NCI-H810 cell growth in a cell viability assay.
# KYSE-270 = experiment: cells; format: functional, cell-based; details: Homo sapiens;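 also: cell growth inhibition measured with a viability assay in the human KYSE-270 line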
# Description: SANGER: Inhibition of human KYSE-270 cell growth in a cell viability assay.
# HSC-4 = experiment: cells; format: functional, cell-based; details: Homo sapiens;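 also: growth inhibition of human HSC-4 cells, read out with a cell viability assay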
# Description: SANGER: Inhibition of human HSC-4 cell growth in a cell viability assay.
# NCI-H2405 = experiment: cells; format: functional, cell-based; details: Homo sapiens;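 also: growth inhibition of the human cell line, read out with a cell viability assay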
# Description: SANGER: Inhibition of human NCI-H2405 cell growth in a cell viability assay.
# IGROV-1 = experiment: cells; format: functional, cell-based; details: Homo sapiens;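 also: reduction of IGROV-1 cell growth, read out with a viability assay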
# Description: SANGER: Inhibition of human IGROV-1 cell growth in a cell viability assay.
# SCC-4 = experiment: cells; format: functional, cell-based; details: Homo sapiens;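 also: growth inhibition of human SCC-4 cells, read out as cell viability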
# Description: SANGER: Inhibition of human SCC-4 cell growth in a cell viability assay.
# [1] = Homo sapiens, NCI-H2196, read-out: IC50
SMILES,"IC50 (BL-70; Homo sapiens, BL-70) [nM]","IC50 (LC4-1; Homo sapiens, LC4-1) [nM]","IC50 (ARH-77; Homo sapiens, ARH-77) [nM]","IC50 (RL; Homo sapiens, RL) [nM]","IC50 (RL95-2; Homo sapiens, RL95-2) [nM]","IC50 (MFH-ino; Homo sapiens, MFH-ino) [nM]","IC50 (SCLC-21H; Homo sapiens, SCLC-21H) [nM]","IC50 (ECC4; Homo sapiens, ECC4) [nM]","IC50 (WSU-NHL; Homo sapiens, WSU-NHL) [nM]","IC50 (RPMI 8402; Homo sapiens, RPMI 8402) [nM]","IC50 (LB647-SCLC; Homo sapiens, LB647-SCLC) [nM]",IC50 (BL-41) [nM],"IC50 (PF-382; Homo sapiens, PF-382) [nM]",IC50 (NCI-H2196; [1]) [nM],"IC50 (KARPAS-422; Homo sapiens, KARPAS-422) [nM]","IC50 (P31-FUJ; Homo sapiens, P31-FUJ) [nM]","IC50 (NCI-H510A; Homo sapiens, NCI-H510A) [nM]",IC50 (EW-22) [nM],"IC50 (EB-3; Homo sapiens, EB-3) [nM]","IC50 (K052; Homo sapiens, K052) [nM]",also measured
Nc1ccccc1NC(=O)c1ccc(CNC(=O)OCc2cccnc2)cc1 [ENTINOSTAT],857,840,382,> 5000,2110,3470,1260,3970,> 5000,387,367,569,1120,4060,1450,> 5000,2050,> 5000,4000,,IC50 (NB12): 318 nM
COc1cc(N2CCC(N3CCN(C)CC3)CC2)ccc1Nc1ncc(Cl)c(Nc2ccccc2S(=O)(=O)C(C)C)n1 [TAE-684],995,> 2000,> 2000,> 2000,501,325,> 2000,> 2000,> 2000,> 2000,1350,1760,1570,> 2000,1100,> 2000,> 2000,> 2000,> 2000,> 2000,
CC(C)C[C@@H](C=O)NC(=O)[C@H](CC(C)C)NC(=O)[C@H](CC(C)C)NC(=O)OCc1ccccc1 [MG-132] (Cbz-Leu-Leu-Leu-aldehyde),,436,,,,,,,,,> 1000,,,> 1000,,,> 1000,> 1000,,,"IC50 (K052; k052): 290 nM and > 1000 nM; IC50 (BL-70; bl-70): 694 nM and > 1000 nM; IC50 (LC4-1; lc4-1): 747 nM; IC50 (ARH-77; arh-77): > 1000 nM; IC50 (RL; rl): > 1000 nM; IC50 (RL95-2; rl95-2): > 1000 nM; IC50 (NB12): > 1000 nM; IC50 (MFH-ino; mfh-ino): > 1000 nM and 111 nM; IC50 (SCLC-21H; sclc-21h): > 1000 nM; IC50 (ECC4; ecc4): > 1000 nM; IC50 (WSU-NHL; wsu-nhl): > 1000 nM; IC50 (RPMI 8402; rpmi-8402): > 1000 nM; IC50 (LB647-SCLC; lb647-sclc): > 1000 nM; IC50 (KP-N-YN): > 1000 nM; IC50 (PF-382; pf-382): 167 nM and 584 nM; IC50 (NCI-H2196; nci-h2196, read-out: IC50): > 1000 nM; IC50 (KARPAS-422; karpas-422): > 1000 nM; IC50 (P31-FUJ; p31-fuj): > 1000 nM; IC50 (NCI-H510A; nci-h510a): > 1000 nM; IC50 (EB-3; eb-3): > 1000 nM"
CO[C@@H]1[C@H](N(C)C(=O)c2ccccc2)C[C@H]2O[C@]1(C)n1c3ccccc3c3c4c(c5c6ccccc6n2c5c31)C(=O)NC4 [MIDOSTAURIN],> 512,,,,,,,,,> 512,,,,,,,,,,,IC50 (NCI-H460): > 512 nM; IC50 (NCI-H810): 210 nM; IC50 (KYSE-270): 168 nM; IC50 (HSC-4): > 512 nM; IC50 (NCI-H2405): 351 nM; IC50 (IGROV-1): > 512 nM; IC50 (SCC-4): 240 nM
COc1ccc(N(C(=O)Oc2c(C)cccc2C)c2ccnc(Nc3ccc(N4CCN(C)CC4)cc3)n2)c(OC)c1,< 20,> 5120,> 5120,> 5120,1320,239,> 5120,> 5120,> 5120,> 5120,> 5120,1000,708,> 5120,> 5120,> 5120,> 5120,,2160,> 5120,
Cc1ccc(NC(=O)c2ccc(CN3CCN(C)CC3)cc2)cc1Nc1nccc(-c2cccnc2)n1 [IMATINIB],> 2000,> 2000,> 2000,> 2000,> 2000,> 2000,> 2000,> 2000,> 2000,> 2000,> 2000,> 2000,> 2000,,> 2000,> 2000,> 2000,> 2000,> 2000,> 2000,"IC50 (NCI-H2196; Homo sapiens, NCI-H2196): > 2000 nM"
C[C@@H](Oc1cc(-c2cnn(C3CCNCC3)c2)cnc1N)c1c(Cl)ccc(F)c1Cl [CRIZOTINIB],> 2000,> 2000,> 2000,> 2000,> 2000,> 2000,> 2000,> 2000,> 2000,> 2000,> 2000,> 2000,> 2000,> 2000,> 2000,> 2000,> 2000,> 2000,> 2000,> 2000,
NC(=O)c1cccc(-c2cc(Nc3ccc(OC(F)(F)F)cc3)ncn2)c1,> 1280,> 1280,> 1280,> 1280,> 1280,> 1280,> 1280,> 1280,> 1280,> 1280,> 1280,> 1280,> 1280,> 1280,> 1280,> 1280,> 1280,,> 1280,> 1280,
C=CC(=O)N1CCCC(Nc2nc(Nc3ccc(N(C)C(=O)CC)cc3)nc3[nH]cnc23)C1 (stereo not given),> 10200,> 10200,> 10200,> 10200,> 10200,> 10200,> 10200,> 10200,> 10200,> 10200,> 10200,> 10200,> 10200,> 10200,> 10200,> 10200,> 10200,,> 10200,> 10200,
CC(C)C[C@H](NC(=O)[C@H](Cc1ccccc1)NC(=O)c1cnccn1)B(O)O [BORTEZOMIB],2.12,1.79,2.38,> 20,3.79,0.443,> 20,> 20,> 20,3.5,4.22,1.25,1.47,6.8,> 20,> 20,> 20,> 20,2.66,,IC50 (NB12): 1.56 nM
Cc1cc(N2CCOCC2)cc2[nH]c(-c3c(NC[C@@H](O)c4cccc(Cl)c4)cc[nH]c3=O)nc12,4800,> 5120,2800,> 5120,813,344,> 5120,> 5120,> 5120,> 5120,> 5120,> 5120,> 5120,> 5120,> 5120,> 5120,> 5120,,> 5120,> 5120,

# From ChEMBL document CHEMBL1201861, “Genomics of Drug Sensitity in Cancer screening data, Wellcome Trust Sanger Institute”
